Experimental data from PubChem BioAssay AID1755 (Sanford-Burnham Center for Chemical Genomics, 2009).
Several values for one entry are separate records, joined by “and”; a condition that tells them apart may be missing. Identical values can stand only once. Activity calls are given as the source filed them. How the calls were made is not given here.

Test system: MDA-MB-435 TRAIL-induced apoptosis potentiation, viability
Assay: MDA-MB-435 TRAIL sensitizers, potency – cell-based, analog series, SAR follow-up (AID 1755)

| SMILES | IC50 |
| --- | --- |
| CSc1nc(-c2ccccc2)nc(C(C)C)n1 | > 10 µM (inactive) |
| CCSc1nc(-c2ccccc2)cc(=O)[nH]1 | > 10 µM (inactive) |
| CCSc1cc(N2CCCC2)nc(-c2ccc(Cl)cc2)n1 | > 10 µM (inactive) |
| CC(Sc1nc(-c2ccccc2)cc(C(F)(F)F)n1)C(=O)N1CCCC1 (stereo not drawn) | > 10 µM (inactive) |
| CSc1nc(-c2ccccc2)nc(-c2ccccc2)n1 | > 10 µM (inactive) |
| CSc1nc(-c2ccccc2)nc(-c2ccccc2OC(C)=O)n1 | > 10 µM (inactive) |
| CSc1nc(-c2ccc(C)cc2)nc(C(Cl)Cl)n1 | 4.81 µM and 3.27 µM |
| COc1cc(-c2ccccc2)[nH]c(=S)n1 | > 10 µM (inactive) |
